Source: PubChem BioAssay (NCI)
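These data come from cells grown in 96-well plates and exposed to compound for 48 hours at five concentrations. TGI: total growth inhibition.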

Columns and labels:
Test in all cases: NCI tumour cell line growth inhibition, 48 h
[1] = test system: SK-OV-3 ovarian
[2] = test system: SW-620 colon
[3] = test system: OVCAR-4 ovarian
[4] = test system: SNB-78 CNS
[5] = test system: EKVX NSCLC
[6] = test system: DLD-1 colon
[7] = test system: HOP-18 NSCLC
[8] = test system: LOX IMVI melanoma
[9] = test system: COLO 205 colon
[10] = test system: OVCAR-3 ovarian
[11] = test system: NCI-H460 lung
[12] = test system: NCI-H23 lung
[13] = test system: HCT-116 colon
[14] = test system: SNB-75 CNS
[15] = test system: CCRF-CEM leukemia
[16] = test system: RXF 393 renal
[17] = test system: TK-10 renal
[18] = test system: SF-539 CNS
[19] = test system: HL-60(TB) leukemia
[20] = test system: HCC-2998 colon
[21] = test system: KM12 colon
[22] = test system: SF-295 CNS
[23] = test system: UACC-62 melanoma
[24] = test system: IGROV1 ovarian
[25] = test system: SK-MEL-5 melanoma
[26] = test system: SK-MEL-28 melanoma
[27] = test system: XF 498 CNS
[28] = test system: NCI-H226 lung
[29] = test system: RPMI-8226 leukemia
[30] = test system: KM20L2 colon
[31] = test system: 786-0 renal
[32] = test system: M14 melanoma
[33] = test system: DMS 273 small cell lung
[34] = test system: A549 NSCLC
[35] = test system: NCI-H522 lung
[36] = test system: OVCAR-8 ovarian
[37] = test system: SNB-19 CNS
[38] = test system: DMS 114 small cell lung
[39] = test system: HOP-62 NSCLC
[40] = test system: MOLT-4 leukemia
[41] = test system: U251 CNS
[42] = test system: SF-268 CNS
[43] = test system: LXFL 529 NSCLC
[44] = test system: M19-MEL melanoma
[45] = test system: K-562 leukemia
[46] = test system: HT29 colon

Measured: TGI

Cc1cc2c(cc1C)N1Cc3c(ccc(C)c3C)N(C2)C1 (tested in a mixture with another compound)
> 100 µM: all assays above
